The values that follow come from patent publication US11180462B2, “Microbiocidal oxadiazole derivatives” (SYNGENTA PARTICIPATIONS AG, priority 2015, dated 2021).

The subject of test [1] is Puccinia recondita f. Sp. Tritici. Description: Fungicidal activity against Puccinia recondita f. sp. tritici / wheat / leaf disc preventative (brown rust). Format: in vivo. The following applies: foliar, 200 ppm in the applied formulation, wheat leaf segments, preventative, compared to untreated control leaf disks, read-out: disease control. The essentials: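 Percent disease control relative to untreated check segments is scored once disease develops, 7 to 9 days after application. Wheat cv. Kanzler segments receive compound spray (200 ppm in formulation) one day before spore inoculation, then sit at 19° C. and 75% rh under 12 h light/12 h dark.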

The test system of test [2] is Phakopsora Pachyrhizi. Description: Fungicidal activity against Phakopsora pachyrhizi / soybean / leaf disc preventative (Asian soybean rust). The test is classed as in vivo. The following applies: foliar, 200 ppm in the applied formulation, soybean leaf disks, compared to untreated control leaf disks, read-out: disease control. Put shortly:
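Scored 12 to 14 days post-application as percent control relative to untreated check discs, rust spores were sprayed under the disc one day after compound treatment. Incubation: 20°C, 75% rh, first 24–36 h in darkness, then 12 h daily light; discs kept on water agar.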

In test [3] the test system is Puccinia recondita f. Sp. Tritici. Kind of test: Fungicidal activity against Puccinia recondita f. sp. tritici / wheat / leaf disc curative (brown rust). Format: in vivo. To be noted: foliar, 24 h, 200 ppm in the applied formulation, wheat leaf segments, curative (applied 1 day after inoculation), compared to untreated control leaf disks, read-out: disease control. Put shortly:
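Scoring is percent disease control relative to untreated segments, made 6 to 8 days after treatment. Wheat (cv. Kanzler) leaf segments received the formulated, water-diluted compound one day post-inoculation with spores, having been kept dark at 19° C and 75% RH, then incubated under 12 h light/12 h dark at the same temperature and humidity.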

Test [4] deals with Glomerella lagenarium (Colletotrichum lagenarium). Kind of test: Fungicidal activity against Glomerella lagenarium (Colletotrichum lagenarium) liquid culture / cucumber / preventative (anthracnose). Format: cell-based. The following applies: Colletotrichum orbiculare; 20 ppm in the applied formulation; liquid culture (PDB), growth inhibition measured photometrically after 3 to 4 days; compared to untreated control; read-out: disease control. The essentials:
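Percent activity against the untreated check was derived from photometric growth measurements made 2 to 7 days after conidia in potato dextrose broth were combined with compound at 20 ppm. Cultures were kept dark at 24 °C and 96% humidity.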

In the case of `C#CCN(Cc1ccc(-c2noc(C(F)(F)F)n2)cc1)C(=O)C1CSC1` [Compound 1.172, N-prop-2-ynyl-N-[[4-[5-(trifluoromethyl)-1,2,4-oxadiazol-3-yl]phenyl]methyl]-thietane-3-carboxamide], the pest or weed control at 200 ppm in test [1], in test [2] and in test [3] was no less than 80% in each case.

For the compound `COCCC(=O)N(Cc1ccc(-c2noc(C(F)(F)F)n2)cc1)CC(F)(F)F` [Compound 1.693, 3-methoxy-N-(2,2,2-trifluoroethyl)-N-[[4-[5-(trifluoromethyl)-1,2,4-oxadiazol-3-yl]phenyl]methyl]-propanamide], in test [4], the inhibition of growth at 20 ppm is no less than 80%. The pest or weed control at 200 ppm in test [2] and in test [3] was no less than 80% throughout.

Turning to `C#CCN(Cc1ccc(-c2noc(C(F)(F)F)n2)cc1)C(=O)C(C)OC` (stereo not shown) [Compound 1.200, 2-methoxy-N-prop-2-ynyl-N-[[4-[5-(trifluoromethyl)-1,2,4-oxadiazol-3-yl]phenyl]methyl]-propanamide], the pest or weed control at 200 ppm in test [1], in test [2] and in test [3] was no less than 80% in each case.

As for `N#CCC(=O)N(Cc1ccc(-c2noc(C(F)(F)F)n2)cc1)C1COC1` [Compound 1.748, 2-cyano-N-(oxetan-3-yl)-N-[[4-[5-(trifluoromethyl)-1,2,4-oxadiazol-3-yl]phenyl]methyl]-acetamide], the pest or weed control at 200 ppm in test [1], in test [2] and in test [3] was no less than 80% each time.

On to `CON(Cc1ccc(-c2noc(C(F)(F)F)n2)cc1)C(=O)c1ccc(Cl)cc1` [Compound 1.71, 4-chloro-N-methoxy-N-[[4-[5-(trifluoromethyl)-1,2,4-oxadiazol-3-yl]phenyl]methyl]-benzamide], for which, in test [4], the inhibition of growth at 20 ppm was no less than 80%. In addition, the pest or weed control at 200 ppm in test [2] and in test [3] was no less than 80% each time.

On to `CCCCON(Cc1ccc(-c2noc(C(F)(F)F)n2)cc1)C(=O)C(C)CC` (stereo not shown) [Compound 1.640, N-butoxy-2-methyl-N-[[4-[5-(trifluoromethyl)-1,2,4-oxadiazol-3-yl]phenyl]methyl]-butanamide], for which the pest or weed control at 200 ppm in test [1], in test [2] and in test [3] was no less than 80% in each case.

Regarding `CCC(=O)N(Cc1ccc(-c2noc(C(F)(F)F)n2)cc1F)OC` [Compound 1.568, N-[[2-fluoro-4-[5-(trifluoromethyl)-1,2,4-oxadiazol-3-yl]phenyl]methyl]-N-methoxy-propanamide], in test [4], the inhibition of growth at 20 ppm is no less than 80%. Besides, the pest or weed control at 200 ppm in test [2] and in test [3] was no less than 80% each time.

Regarding `CC1(C(=O)N(Cc2ccc(-c3noc(C(F)(F)F)n3)cc2)C2COC2)COC1` [Compound 1.744, 3-methyl-N-(oxetan-3-yl)-N-[[4-[5-(trifluoromethyl)-1,2,4-oxadiazol-3-yl]phenyl]methyl]-oxetane-3-carboxamide], the pest or weed control at 200 ppm in test [1], in test [2] and in test [3] was no less than 80% each time.

As to `O=C(C1CCCO1)N(Cc1ccc(-c2noc(C(F)(F)F)n2)cc1)C1COC1` (stereo not shown) [Compound 1.747, N-(oxetan-3-yl)-N-[[4-[5-(trifluoromethyl)-1,2,4-oxadiazol-3-yl]phenyl]methyl]-tetrahydrofuran-2-carboxamide], the pest or weed control at 200 ppm in test [1], in test [2] and in test [3] was no less than 80% each time.

`COC(=O)N(Cc1ccc(-c2noc(C(F)(F)F)n2)cc1)OC` [Compound 2.3, methyl N-methoxy-N-[[4-[5-(trifluoromethyl)-1,2,4-oxadiazol-3-yl]phenyl]methyl]carbamate]: the inhibition of growth at 20 ppm in test [4] was no less than 80%. The pest or weed control at 200 ppm in test [2] and in test [3] was no less than 80% throughout.

With `CCC(=O)N(Cc1ccc(-c2noc(C(F)(F)F)n2)cn1)OC` [Compound 1.571, N-methoxy-N-[[5-[5-(trifluoromethyl)-1,2,4-oxadiazol-3-yl]-2-pyridyl]methyl]-propanamide], the inhibition of growth at 20 ppm in test [4] was no less than 80%. In addition, the pest or weed control at 200 ppm in test [2] and in test [3] was no less than 80% throughout.

Take `CON(Cc1ccc(-c2noc(C(F)(F)F)n2)cc1)C(=O)C1(c2ccccc2)CC1` [Compound 1.23, N-methoxy-1-phenyl-N-[[4-[5-(trifluoromethyl)-1,2,4-oxadiazol-3-yl]phenyl]methyl]-cyclopropane-carboxamide]: the inhibition of growth at 20 ppm in test [4] was no less than 80%. Besides, the pest or weed control at 200 ppm in test [2] and in test [3] was no less than 80% each time.

In the case of `O=C(C1CC1(F)F)N(Cc1ccc(-c2noc(C(F)(F)F)n2)cc1)CC1CC1` (stereo not shown) [Compound 1.207, N-(cyclopropylmethyl)-2,2-difluoroN-[[4-[5-(trifluoromethyl)-1,2,4-oxadiazol-3-yl]phenyl]methyl]-cyclopropane-carboxamide], the inhibition of growth at 20 ppm in test [4] was no less than 80%. The pest or weed control at 200 ppm in test [2] and in test [3] was no less than 80% each time.

On to `COCCOC(=O)N(Cc1ccc(-c2noc(C(F)(F)F)n2)cc1)OC` [Compound 2.2, 2-methoxyethyl N-methoxy-N-[[4-[5-(trifluoromethyl)-1,2,4-oxadiazol-3-yl]phenyl]methyl]-carbamate], for which the inhibition of growth at 20 ppm in test [4] is no less than 80%. Moreover, the pest or weed control at 200 ppm in test [2] and in test [3] was no less than 80% each time.

Take `CC1(C(=O)N(CCO)Cc2ccc(-c3noc(C(F)(F)F)n3)cc2)COC1` [Compound 1.721, N-(2-hydroxyethyl)-3-methyl-N-[[4-[5-(trifluoromethyl)-1,2,4-oxadiazol-3-yl]phenyl]methyl]-oxetane-3-carboxamide]: the pest or weed control at 200 ppm in test [1], in test [2] and in test [3] was no less than 80% in each case.

As to `CC1(C(=O)ON(Cc2ccc(-c3noc(C(F)(F)F)n3)cc2)C(=O)C2(C)COC2)COC1` [Compound 1.767, [(3-methyloxetane-3-carbonyl)-[[4-[5-(trifluoromethyl)-1,2,4-oxadiazol-3-yl]phenyl]methyl]-amino] 3-methyloxelane-3-carboxylate], the pest or weed control at 200 ppm in test [1], in test [2] and in test [3] was no less than 80% throughout.

With `CON(Cc1ccc(-c2noc(C(F)(F)F)n2)cc1)C(=O)N1CCOCC1` [Compound 3.1, N-methoxy-N-[[4-[5-(trifluoromethyl)-1,2,4-oxadiazol-3-yl]phenyl]methyl]-morpholine-4-carboxamide], the inhibition of growth at 20 ppm in test [4] was no less than 80%. Also, the pest or weed control at 200 ppm in test [2] and in test [3] was no less than 80% each time.

Take `COC(C)C(=O)N(Cc1ccc(-c2noc(C(F)(F)F)n2)cc1)C1COC1` (stereo not shown) [Compound 1.750, 2-methoxy-N-(oxetan-3-yl)-N-[[4-[5-(trifluoromethyl)-1,2,4-oxadiazol-3-yl]phenyl]methyl]-propanamide]: the pest or weed control at 200 ppm in test [2] and in test [3] was no less than 80% throughout.

With `O=C(C1CC1)N(Cc1ccc(-c2noc(C(F)(F)F)n2)cc1)CC(F)(F)F` [Compound 1.586, N-(2,2,2-trifluoroethyl)-N-[[4-[5-(trifluoromethyl)-1,2,4-oxadiazol-3-yl]phenyl]methyl]-cyclopropane-carboxamide], the inhibition of growth at 20 ppm in test [4] is no less than 80%. In addition, the pest or weed control at 200 ppm in test [2] and in test [3] was no less than 80% in each case.

With `CON(Cc1ccc(-c2noc(C(F)(F)F)n2)cc1)C(=O)C1C(C)(C)C1(C)C` [Compound 1.14, N-methoxy-2,2,3,3-tetramethyl-N-[[4-[5-(trifluoromethyl)-1,2,4-oxadiazol-3-yl]phenyl]methyl]-cyclopropane-carboxamide], the pest or weed control at 200 ppm in test [2] and in test [3] was no less than 80% each time.

In the case of `CCCN(Cc1ccc(-c2noc(C(F)(F)F)n2)cc1)C(=O)CC(F)(F)F` [Compound 1.667, 3,3,3-trifluoroN-propyl-N-[[4-[5-(trifluoromethyl)-1,2,4-oxadiazol-3-yl]phenyl]methyl]-propanamide], the inhibition of growth at 20 ppm in test [4] was no less than 80%. For the same compound, the pest or weed control at 200 ppm in test [2] and in test [3] was no less than 80% each time.

On to `CCCC(=O)N(Cc1ccc(-c2noc(C(F)(F)F)n2)cc1)CC1CC1` [Compound 1.210, N-(cyclopropylmethyl)-N-[[4-[5-(trifluoromethyl)-1,2,4-oxadiazol-3-yl]phenyl]methyl]-butanamide], for which, in test [4], the inhibition of growth at 20 ppm is no less than 80%. For the same compound, the pest or weed control at 200 ppm in test [2] and in test [3] was no less than 80% in each case.
